Each molecule was assayed on firefly luciferase (FFL) production in the lung (assay: Delivery of firefly luciferase (FFL) mRNA by intratracheal administration, IVIS imaging of luciferase production in the lung). Details: lipid nanoparticles with FFL mRNA, cationic lipid, DMG-PEG2000, cholesterol, DOPE; single intratracheal aerosol administration; male CD1 mice; 24 hours after administration.
Type: in vivo
Experimental: Lipid nanoparticle formulations comprising FFL mRNA, cationic lipid, DMG-PEG2000, cholesterol and DOPE were administered to male CD1 mice (6-8 weeks old) by a single intratracheal aerosol administration via a Microsprayer® (50 ul/animal) while under anesthesia. At approximately 24 hours post-dose, the animals were dosed with luciferin at 150 mg/kg (60 mg/ml) by intraperitoneal injection at 2.5 ml/kg. After 5-15 minutes, all animals were imaged using an IVIS imaging system to measure luciferase production in the lung.

SMILES | in vivo protein (FFL) production in the lung / luciferase activity
CCCCCCCCOC(=O)CC(CC(=O)OCCCCCCCC)(OC(=O)CCN(C)C)C(=O)OCCCCCCCC [Compound 1, trioctyl 2-((3-(dimethylamino)propanoyl)oxy) propane-1,2,3-tricarboxylate] | high levels
CCCCCCCCCCCCCCOC(=O)CC(CC(=O)OCCCCCCCCCCCCCC)(OC(=O)CCN1CCCCC1)C(=O)OCCCCCCCCCCCCCC [Compound 16] | high levels
CCCCCCCC(=O)OCC(COC(=O)CCCCCCC)(COC(=O)CCCCCCC)N(CC(=O)OCCN(C)C)C(=O)CCCCCCC [Compound 177, 2-(N-(2-(2-(dimethylamino)ethoxy)-2-oxoethyl)octanamido)-2-((octanoyloxy)methyl) propane-1,3-diyl dioctanoate] | high levels
CCCCC/C=C\C/C=C\CCCCCCCCOC(=O)CC(CC(=O)OCCCCCCCC/C=C\C/C=C\CCCCC)(OC(=O)CCCN(C)C)C(=O)OCCCCCCCC/C=C\C/C=C\CCCCC [Compound 249] | high levels

From US12697302B2, “Tricine and citric acid lipids” (Translate Bio, Inc., priority 2019, dated 2026)
